22 compounds from ChEMBL document CHEMBL1255172, “Discovery and structure-activity relationship of a novel spirocarbamate series of NPY Y5 antagonists” (Bioorg Med Chem Lett, 2010) can be followed below.

The term Ki denotes a dissociation constant, usually derived from enzyme kinetics or from competition with a known ligand. Usually fraction unbound stands for free concentration divided by total concentration. By Kp is commonly meant tissue or fluid exposure divided by exposure in the circulation. The bioavailability is dose-corrected exposure relative to a reference, in per cent. A high value points to good availability.

Molecules are shown by their SMILES.

Data set [1] can be described thus: Clearance in rat blood at 0.5 mg/kg, iv and 1 mg/kg, po. Format: ADME, organism-based. The conditions noted are these: whole blood.
The target of a further data set is Cytochrome P450 2C9 (Homo sapiens, UniProt P11712). Kind of data set: Inhibition of CYP2C9. Format: ADME.
Cytochrome P450 2C9, sequence (P11712 whole entry): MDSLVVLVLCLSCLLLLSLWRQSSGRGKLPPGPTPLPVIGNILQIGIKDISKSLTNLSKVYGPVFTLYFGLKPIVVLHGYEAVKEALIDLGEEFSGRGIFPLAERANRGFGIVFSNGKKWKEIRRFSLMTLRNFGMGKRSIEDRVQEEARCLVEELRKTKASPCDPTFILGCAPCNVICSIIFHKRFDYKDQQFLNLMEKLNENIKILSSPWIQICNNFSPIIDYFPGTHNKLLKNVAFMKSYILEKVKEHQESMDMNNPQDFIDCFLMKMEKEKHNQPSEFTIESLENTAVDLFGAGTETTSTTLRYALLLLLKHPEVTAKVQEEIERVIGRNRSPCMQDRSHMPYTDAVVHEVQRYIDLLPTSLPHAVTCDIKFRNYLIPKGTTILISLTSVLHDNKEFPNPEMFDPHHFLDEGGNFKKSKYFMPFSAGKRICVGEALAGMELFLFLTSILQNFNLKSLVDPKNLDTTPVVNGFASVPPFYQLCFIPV
In a further data set the target is Cytochrome P450 3A4 (Homo sapiens, UniProt P08684). The data set is described as follows: Inhibition of CYP3A4. Format: ADME.
Cytochrome P450 3A4, sequence (P08684 whole entry): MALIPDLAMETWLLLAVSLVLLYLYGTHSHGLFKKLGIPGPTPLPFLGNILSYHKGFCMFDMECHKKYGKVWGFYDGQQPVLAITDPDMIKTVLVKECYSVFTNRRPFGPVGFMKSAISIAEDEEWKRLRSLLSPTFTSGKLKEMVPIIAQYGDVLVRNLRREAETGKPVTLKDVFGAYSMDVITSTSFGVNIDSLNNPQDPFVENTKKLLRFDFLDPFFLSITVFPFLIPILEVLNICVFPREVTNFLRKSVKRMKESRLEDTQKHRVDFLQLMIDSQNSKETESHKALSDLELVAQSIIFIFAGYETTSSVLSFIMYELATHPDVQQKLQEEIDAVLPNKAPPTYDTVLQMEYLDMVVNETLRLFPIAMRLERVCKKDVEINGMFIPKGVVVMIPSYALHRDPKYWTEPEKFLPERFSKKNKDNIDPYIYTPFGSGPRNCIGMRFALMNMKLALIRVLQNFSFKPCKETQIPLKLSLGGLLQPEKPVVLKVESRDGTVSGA
The target of a further data set is Cytochrome P450 2D6 (Homo sapiens, UniProt P10635). The data set is described as follows: Inhibition of CYP2D6. It counts as ADME.
Cytochrome P450 2D6, sequence (P10635 whole entry): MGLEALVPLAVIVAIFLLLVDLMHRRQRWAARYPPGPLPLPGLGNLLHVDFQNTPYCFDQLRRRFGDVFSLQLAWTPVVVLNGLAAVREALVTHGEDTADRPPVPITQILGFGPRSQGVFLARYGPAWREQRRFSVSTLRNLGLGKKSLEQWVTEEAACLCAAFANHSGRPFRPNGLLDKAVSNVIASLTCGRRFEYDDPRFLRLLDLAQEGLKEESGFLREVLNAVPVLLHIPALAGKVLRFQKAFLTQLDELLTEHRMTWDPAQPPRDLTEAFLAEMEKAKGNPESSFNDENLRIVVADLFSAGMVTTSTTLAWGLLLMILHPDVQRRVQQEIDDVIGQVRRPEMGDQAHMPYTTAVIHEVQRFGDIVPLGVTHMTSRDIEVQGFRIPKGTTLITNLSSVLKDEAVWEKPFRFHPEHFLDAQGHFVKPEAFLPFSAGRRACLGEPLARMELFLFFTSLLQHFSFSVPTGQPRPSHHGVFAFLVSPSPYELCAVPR
For another data set, the target named is T1, Cytochrome P450 1A2 (Homo sapiens, UniProt P05177).
T1 sequence (P05177 whole entry): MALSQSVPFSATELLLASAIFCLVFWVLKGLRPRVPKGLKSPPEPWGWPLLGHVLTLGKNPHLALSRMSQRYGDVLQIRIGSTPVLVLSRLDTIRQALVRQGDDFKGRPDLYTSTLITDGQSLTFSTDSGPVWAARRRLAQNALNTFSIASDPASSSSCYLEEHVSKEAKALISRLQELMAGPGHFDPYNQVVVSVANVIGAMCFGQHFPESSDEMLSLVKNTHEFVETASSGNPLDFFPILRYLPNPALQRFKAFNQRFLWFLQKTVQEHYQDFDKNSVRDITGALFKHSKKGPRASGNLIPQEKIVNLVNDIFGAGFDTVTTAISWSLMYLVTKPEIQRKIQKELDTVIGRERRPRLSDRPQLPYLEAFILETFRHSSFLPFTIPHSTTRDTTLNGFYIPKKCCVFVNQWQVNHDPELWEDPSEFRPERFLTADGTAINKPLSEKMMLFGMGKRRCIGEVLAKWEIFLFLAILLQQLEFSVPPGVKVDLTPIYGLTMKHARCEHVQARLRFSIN
The data set is described as follows: Inhibition of CYP1A2. Format: ADME.

In the next data set the target is Cytochrome P450 2C19 (Homo sapiens, UniProt P33261). The data set is described as follows: Inhibition of CYP2C19. Format: ADME.
Cytochrome P450 2C19, sequence (P33261 whole entry): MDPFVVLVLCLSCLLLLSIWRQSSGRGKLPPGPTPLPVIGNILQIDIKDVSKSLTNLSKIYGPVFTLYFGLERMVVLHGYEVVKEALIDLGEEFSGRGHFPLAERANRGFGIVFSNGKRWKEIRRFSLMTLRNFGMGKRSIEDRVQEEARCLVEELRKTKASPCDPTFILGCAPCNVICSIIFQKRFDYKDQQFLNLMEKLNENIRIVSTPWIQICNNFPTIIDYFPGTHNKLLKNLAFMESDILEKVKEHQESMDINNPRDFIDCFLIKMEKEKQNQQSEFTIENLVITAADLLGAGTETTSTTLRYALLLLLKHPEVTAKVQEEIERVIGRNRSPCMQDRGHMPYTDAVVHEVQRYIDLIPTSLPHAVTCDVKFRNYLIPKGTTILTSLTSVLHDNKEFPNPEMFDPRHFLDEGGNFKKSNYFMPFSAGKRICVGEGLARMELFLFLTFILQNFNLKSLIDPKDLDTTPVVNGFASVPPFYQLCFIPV
Data set [2] relates to Liver microsomes. The data set is described as follows: Intrinsic clearance in human liver microsome. Format: ADME. Background: Liver microsomes are a subcellular fraction often used to study metabolism.
Data set [3] relates to Liver microsomes. Kind of data set: Intrinsic clearance in rat liver microsome. Format: ADME.
For data set [4], the target named is T2, Neuropeptide Y receptor type 5 (Homo sapiens, UniProt Q15761).
T2 sequence (Q15761 whole entry): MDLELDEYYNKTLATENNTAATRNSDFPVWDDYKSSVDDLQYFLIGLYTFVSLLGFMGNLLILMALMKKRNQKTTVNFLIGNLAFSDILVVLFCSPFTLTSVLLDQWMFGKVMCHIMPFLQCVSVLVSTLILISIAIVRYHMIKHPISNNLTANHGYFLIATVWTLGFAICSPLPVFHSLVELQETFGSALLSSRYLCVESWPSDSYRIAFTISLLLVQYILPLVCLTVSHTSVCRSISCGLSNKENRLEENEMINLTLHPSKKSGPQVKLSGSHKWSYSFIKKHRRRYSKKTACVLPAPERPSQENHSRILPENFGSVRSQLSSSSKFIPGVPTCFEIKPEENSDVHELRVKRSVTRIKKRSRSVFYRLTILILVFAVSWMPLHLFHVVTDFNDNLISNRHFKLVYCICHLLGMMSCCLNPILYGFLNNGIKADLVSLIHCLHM
Kind of data set: Antagonist activity at human NPY Y5 receptor. Format: functional.

Data set [5] is described as follows: Protein binding in rat brain assessed as unbound fraction. Format: ADME, tissue-based. The conditions noted are these: brain tissue.
Data set [6] is described as follows: Ratio of drug uptake from blood to brain in rat. Format: ADME, tissue-based. The conditions noted are these: brain and blood.
The nature of data set [7]: Oral bioavailability in rat at 1 mg/kg. It counts as ADME, organism-based. The conditions noted are these: in vivo.

Compound `FC(F)(F)c1ccc(Nc2nc(-c3ccccn3)cs2)cc1` showed a clearance in data set [1] of 27 mL/min/kg. Besides, the INH at Cytochrome P450 2C9, on Cytochrome P450 3A4, at Cytochrome P450 2D6, at Cytochrome P450 1A2 and on Cytochrome P450 2C19 was under 0.1 µM throughout.

Take `O=C(Nc1nc(-c2ccccn2)cs1)N1CCC2(CC1)CN(c1ccccc1)C(=O)O2`: the results for the clearance in the data set on Liver microsomes [2] and with Liver microsomes [3] were 0.6 mL/min/g and 0.5 mL/min/g, respectively. In addition, the INH on Cytochrome P450 2C9, at Cytochrome P450 3A4, on Cytochrome P450 2D6, on Cytochrome P450 1A2 and on Cytochrome P450 2C19 was over 10 µM throughout.

`Cc1ncccc1N1C[C@]2(CC[C@@H](CNc3cnn(-c4ccccc4F)c3)CC2)OC1=O`: the inhibition constant Ki in data set [4] was 631 pM. For the same compound, the INH at Cytochrome P450 2C9, on Cytochrome P450 3A4, at Cytochrome P450 2D6 and on Cytochrome P450 1A2 was over 10 µM each time.

The compound `O=C1O[C@]2(CC[C@H](CNc3cnn(-c4ccccc4F)c3)CC2)CN1c1cccnc1` showed a Ki in data set [4] of 100 pM. The INH at Cytochrome P450 2C9 was 7 µM; at Cytochrome P450 3A4, 1 µM; on Cytochrome P450 2D6 it was over 10 µM; on Cytochrome P450 1A2, over 10 µM; on Cytochrome P450 2C19, 8 µM. Besides, the fraction unbound in data set [5] came to 0.025.

In turn, `O=C1O[C@]2(CC[C@H](CNc3ccc(-c4nccs4)cn3)CC2)CN1c1ccccn1` showed a Ki in data set [4] of 126 pM. Further, the INH on Cytochrome P450 2C9 was 0.3 µM; at Cytochrome P450 3A4, 7 µM; at Cytochrome P450 2D6, 1 µM; on Cytochrome P450 1A2 it was over 10 µM; at Cytochrome P450 2C19, 3 µM.

Turning to `O=C1O[C@]2(CC[C@H](CNc3ccc(-c4ncccn4)cn3)CC2)CN1c1ccccn1`, in [4], the Ki was 158 pM. In addition, the INH is 5 µM on Cytochrome P450 2C9; over 10 µM on Cytochrome P450 3A4; over 10 µM on Cytochrome P450 2D6; over 10 µM at Cytochrome P450 1A2; 10 µM on Cytochrome P450 2C19. In [5], the fraction unbound turned out to be 0.035.

With `O=C1O[C@]2(CC[C@H](CNc3ccc(OC4CCC4)cn3)CC2)CN1c1ccccn1`, the Ki in data set [4] is 158 pM. Further, the INH at Cytochrome P450 2C9 was 2 µM; on Cytochrome P450 3A4, 3 µM; at Cytochrome P450 2D6, 2 µM; on Cytochrome P450 1A2 it was over 10 µM; at Cytochrome P450 2C19, 7 µM.

Consider `O=C1O[C@]2(CC[C@H](CNc3ccc(C(F)(F)F)cn3)CC2)CN1c1ccccn1`, for which the Ki in [4] is 1000 pM. In addition, the INH on Cytochrome P450 2C9 was 2 µM; at Cytochrome P450 3A4, over 10 µM; on Cytochrome P450 2D6, over 10 µM; at Cytochrome P450 1A2 it was over 10 µM; on Cytochrome P450 2C19, 5 µM. Further, in [5], the fraction unbound turned out to be 0.005.

Compound `O=C1O[C@]2(CC[C@H](CNc3ccc(-c4ccccc4F)nc3)CC2)CN1c1ccccn1` had a Ki in data set [4] of 5010 pM. For the same compound, the INH was determined as 1 µM at Cytochrome P450 2C9, 9 µM at Cytochrome P450 3A4, 2 µM on Cytochrome P450 2D6 and 9 µM at Cytochrome P450 2C19.

For the compound `O=C1O[C@]2(CC[C@H](CNc3ccc(-c4ccccc4F)nn3)CC2)CN1c1ccccn1`, in data set [4], the Ki is 63.1 pM. The INH at Cytochrome P450 2C9 is 1 µM; on Cytochrome P450 3A4, over 10 µM; on Cytochrome P450 2D6, 2 µM; at Cytochrome P450 1A2 it was 5 µM; on Cytochrome P450 2C19, 2 µM. Moreover, in data set [5], the fraction unbound worked out at 0.016.

`O=C1O[C@]2(CC[C@H](CNc3cnc(-c4ccccc4F)cn3)CC2)CN1c1ccccn1` showed a Ki in data set [4] of 25.1 pM. The INH is 0.3 µM at Cytochrome P450 2C9; over 10 µM on Cytochrome P450 3A4; over 10 µM at Cytochrome P450 2D6; over 10 µM on Cytochrome P450 1A2; 2 µM on Cytochrome P450 2C19. The free fraction (fraction unbound) in data set [5] stood at 0.002.

In the case of `O=C1O[C@]2(CC[C@H](CNc3ccn(-c4ccccc4F)n3)CC2)CN1c1ccccn1`, in data set [4], the affinity corresponds to a Ki of 31.6 pM. Moreover, the INH on Cytochrome P450 2C9 is 2 µM; at Cytochrome P450 3A4 it was over 10 µM; at Cytochrome P450 2D6, over 10 µM; at Cytochrome P450 1A2, over 10 µM; at Cytochrome P450 2C19 it was 4 µM.

`O=C1O[C@]2(CC[C@H](CNc3ncc(-c4ccccc4F)cn3)CC2)CN1c1ccccn1`: in data set [4], the inhibitory constant (Ki) is 316 pM. Besides, the INH at Cytochrome P450 2C9 was 1 µM; at Cytochrome P450 3A4 it was 5 µM; at Cytochrome P450 2D6, over 10 µM; at Cytochrome P450 1A2, 6 µM; on Cytochrome P450 2C19, 4 µM. Moreover, in [5], the free fraction (fraction unbound) is under 0.01.

With `O=C1O[C@]2(CC[C@H](CNc3cnn(-c4ccccc4F)c3)CC2)CN1c1cncnc1`, the Ki in [4] is 39.8 pM. The INH is over 10 µM at Cytochrome P450 2C9; 2 µM at Cytochrome P450 3A4; over 10 µM at Cytochrome P450 2D6; over 10 µM at Cytochrome P450 1A2; 6 µM at Cytochrome P450 2C19. The fraction unbound in data set [5] came out at 0.044.

With `O=C1O[C@]2(CC[C@H](CNc3cnn(-c4ccccc4F)c3)CC2)CN1c1cccnc1F`, the Ki in data set [4] is 100 pM. The INH on Cytochrome P450 2C9 is 6 µM; on Cytochrome P450 3A4, 5 µM; on Cytochrome P450 2D6 it was over 10 µM; at Cytochrome P450 1A2, over 10 µM; at Cytochrome P450 2C19, 8 µM. Besides, the fraction unbound in [5] was determined as 0.019.

For `O=C1O[C@]2(CC[C@H](CNc3cnn(-c4ccccc4F)c3)CC2)CN1c1cnccn1`, the Ki in data set [4] was 63.1 pM. Further, the INH is 3 µM at Cytochrome P450 2C9; 0.6 µM on Cytochrome P450 3A4; 2 µM on Cytochrome P450 2D6; over 10 µM on Cytochrome P450 1A2; 2 µM on Cytochrome P450 2C19. In addition, the fraction unbound in [5] turned out to be 0.017.

As to `O=C1O[C@]2(CC[C@H](CNc3cnn(-c4ccccc4F)c3)CC2)CN1c1ccnnc1`, in data set [4], affinity was put at a Ki of 200 pM. The INH was over 10 µM on Cytochrome P450 2C9; 6 µM at Cytochrome P450 3A4; over 10 µM at Cytochrome P450 2D6; over 10 µM on Cytochrome P450 1A2; over 10 µM at Cytochrome P450 2C19. Moreover, the unbound share (fraction unbound) in data set [5] came out at 0.044.

On to `Cc1nnc(N2C[C@]3(CC[C@@H](CNc4cnn(-c5ccccc5F)c4)CC3)OC2=O)s1`, for which the Ki in [4] was 200 pM. For the same compound, the INH at Cytochrome P450 2C9 was over 10 µM; at Cytochrome P450 3A4, 6 µM; at Cytochrome P450 2D6, over 10 µM; at Cytochrome P450 1A2 it was over 10 µM; on Cytochrome P450 2C19, over 10 µM. In data set [5], the fraction unbound turned out to be 0.026.

Turning to `O=C1O[C@]2(CC[C@H](CNc3ccc(-c4ncccn4)cn3)CC2)CN1c1cccnn1`, the affinity in data set [4], expressed as Ki, was 1580 pM. For the same compound, the INH at Cytochrome P450 2C9, at Cytochrome P450 2D6, at Cytochrome P450 1A2 and at Cytochrome P450 2C19 was over 10 µM throughout.

Take `Cc1ccccc1-c1ccc(NC[C@H]2CC[C@]3(CC2)CN(c2cccnn2)C(=O)O3)nn1`: the Ki in data set [4] is 63.1 pM. In addition, the INH at Cytochrome P450 2C9, on Cytochrome P450 3A4, on Cytochrome P450 2D6, at Cytochrome P450 1A2 and on Cytochrome P450 2C19 was over 10 µM throughout. The fraction unbound in data set [5] came out at 0.051.

`Cc1cccc(-c2ccc(NC[C@H]3CC[C@]4(CC3)CN(c3cccnn3)C(=O)O4)nc2)n1` showed a Ki in data set [4] of 251 pM. For the same compound, the INH on Cytochrome P450 2C9, on Cytochrome P450 3A4, at Cytochrome P450 2D6, on Cytochrome P450 1A2 and on Cytochrome P450 2C19 was over 10 µM each time. The unbound share (fraction unbound) in data set [5] worked out at 0.056.

`O=C1O[C@]2(CC[C@H](CNc3ccc(-c4ncccc4F)cn3)CC2)CN1c1cccnn1`: the clearance in [1] was 70 mL/min/kg. The same compound showed a Ki in data set [4] of 316 pM. For the same compound, the INH at Cytochrome P450 2C9, at Cytochrome P450 3A4, at Cytochrome P450 2D6, at Cytochrome P450 1A2 and on Cytochrome P450 2C19 was over 10 µM each time. In addition, the Kp in data set [6] was 0.4. The compound further came in with a bioavailability in [7] of 50%. In data set [5], the fraction unbound was determined as 0.052.
